Results from patent US12577226B2, “Compounds for treating Huntington's disease” (PTC THERAPEUTICS, INC., priority 2019, dated 2026).
Blank lines part the entries; values can stand above or below the molecule they belong to.

System: Endogenous Huntingtin Protein (capture with MW1 (expanded polyglutamine) or MAB2166 antibody)
Experiment: Endogenous Huntingtin Protein Assay (ELISA-based Meso Scale Discovery electrochemiluminescence assay)
Format: cell-based
Settings: MSD electrochemiluminescence platform
In short: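 MSD electrochemiluminescence sandwich immunoassay: plates coated with 1 μg/mL MW1 or MAB2166 capture antibody, samples incubated overnight at 4 °C. Detection with rabbit monoclonal #5656S then SULFO-TAG anti-rabbit (each 0.25 μg/mL, 1 h RT).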

IC50: ≤ 100 nM
Molecule: COc1cc(-c2cnc(-c3ccc(N4CCNC(C)C4)nn3)c(O)c2)cc2cn(C)nc12 (stereo not drawn) [Compound 95, 5-(7-methoxy-2-methyl-2H-indazol-5-yl)-2-[6-(3-methylpiperazin-1-yl)pyridazin-3-yl]pyridin-3-ol]

IC50: 100 to 500 nM
Molecule: CCc1cc(-c2cnc(-c3cnc(N4CC[C@@H](NC(C)(C)C)C4)nn3)c(O)c2)cn2cc(C)nc12 [Compound 148, 2-{3-[(3R)-3-(tert-butylamino)pyrrolidin-1-yl]-1,2,4-triazin-6-yl}-5-(8-ethyl-2-methylimidazo[1,2-a]pyridin-6-yl)pyridin-3-ol]

IC50: ≤ 100 nM
Molecule: COc1cc(-c2cnc(-c3cnc(N4CC[C@@H](NC(C)(C)C)C4)nn3)c(O)c2)cc2cn(C)nc12 [Compound 146, 2-{3-[(3R)-3-(tert-butylamino)pyrrolidin-1-yl]-1,2,4-triazin-6-yl}-5-(7-methoxy-2-methyl-2H-indazol-5-yl)pyridin-3-ol]

IC50: ≤ 100 nM
Molecule: Cc1cn2cc(-c3cnc(-c4cnc(N5CCN(C)CC5)nn4)c(O)c3)cc(C)c2n1 [Compound 153, 5-(2,8-dimethylimidazo[1,2-a]pyridin-6-yl)-2-[3-(4-methylpiperazin-1-yl)-1,2,4-triazin-6-yl]pyridin-3-ol]

IC50: ≤ 100 nM
Molecule: COc1cc(-c2cnc(-c3cnc(N4CCN(C)CC4)nn3)c(O)c2)cc2cn(C)nc12 [Compound 150, 5-(7-methoxy-2-methyl-2H-indazol-5-yl)-2-[3-(4-methylpiperazin-1-yl)-1,2,4-triazin-6-yl]pyridin-3-ol]

IC50: ≤ 100 nM
Molecule: CCC1CN(c2ccc(-c3ncc(-c4cc(F)c5nn(C)cc5c4)cc3O)nn2)CCN1 (stereo not drawn) [Compound 120, 2-[6-(3-ethylpiperazin-1-yl)pyridazin-3-yl]-5-(7-fluoro-2-methyl-2H-indazol-5-yl)pyridin-3-ol]

IC50: ≤ 100 nM
Molecule: C[C@H]1CN(c2ccc(-c3ncc(-c4cc(F)c5nn(C)cc5c4)cc3O)nn2)CCN1 [Compound 103, 5-(7-fluoro-2-methyl-2H-indazol-5-yl)-2-{6-[(3S)-3-methylpiperazin-1-yl]pyridazin-3-yl}pyridin-3-ol]

More lines, now with the values behind:

Molecule: Cn1ccc(-c2cnc(-c3ccc(O[C@H]4CC(C)(C)NC(C)(C)[C@H]4F)nn3)c(O)c2)n1 (single isomer, unassigned) [Compound 7, 2-(6-{[(3R,4S)-3-fluoro-2,2,6,6-tetramethylpiperidin-4-yl]oxy}pyridazin-3-yl)-5-(1-methyl-1H-pyrazol-3-yl)pyridin-3-ol or 2-(6-{[(3S,4R)-3-fluoro-2,2,6,6-tetramethylpiperidin-4-yl]oxy}pyridazin-3-yl)-5-(1-methyl-1H-pyrazol-3-yl)pyridin-3-ol]
IC50: 100 to 500 nM

Molecule: C[C@]12CC[C@](C)(C[C@@H](Oc3ccc(-c4ncc(-n5nccn5)cc4O)nn3)C1)N2 [Compound 32, 2-(6-{[(1R,3s,5S)-1,5-dimethyl-8-azabicyclo[3.2.1]octan-3-yl]oxy}pyridazin-3-yl)-5-(2H-1,2,3-triazol-2-yl)pyridin-3-ol and 2-(6-{[(1S,3r,5R)-1,5-dimethyl-8-azabicyclo[3.2.1]octan-3-yl]oxy}pyridazin-3-yl)-5-(2H-1,2,3-triazol-2-yl)pyridin-3-ol]
IC50: ≤ 100 nM

Molecule: CC1CN(c2ccc(-c3ncc(NCc4ccccn4)cc3O)nn2)CCN1 (stereo not drawn) [Compound 109, 2-[6-(3-methylpiperazin-1-yl)pyridazin-3-yl]-5-{[(pyridin-2-yl)methyl]amino}pyridin-3-ol]
IC50: 500 to 1000 nM

Molecule: C[C@@H]1CN(c2ccc(-c3ncc(-c4ccc5n[nH]cc5c4)cc3O)nn2)C[C@H](C)N1 [Compound 131, 2-{6-[(3R,5S)-3,5-dimethylpiperazin-1-yl]pyridazin-3-yl}-5-(2H-indazol-5-yl)pyridin-3-ol and 2-{6-[(3S,5R)-3,5-dimethylpiperazin-1-yl]pyridazin-3-yl}-5-(2H-indazol-5-yl)pyridin-3-ol]
IC50: 500 to 1000 nM

Molecule: CC1CN(c2ccc(-c3ncc(NCc4cnc5ccccc5c4)cc3O)nn2)CCN1 (stereo not drawn) [Compound 112, 2-[6-(3-methylpiperazin-1-yl)pyridazin-3-yl]-5-{[(quinolin-3-yl)methyl]amino}pyridin-3-ol]
IC50: 500 to 1000 nM

Molecule: Oc1cc(-n2nccn2)cnc1-c1ccc(N2CCN[C@@H](C3CC3)C2)nn1 [Compound 128, 2-{6-[(3S)-3-cyclopropylpiperazin-1-yl]pyridazin-3-yl}-5-(2H-1,2,3-triazol-2-yl)pyridin-3-ol]
IC50: ≤ 100 nM

Molecule: CC1(C)CC(Oc2ccc(-c3ncc(-n4cncn4)cc3O)nn2)CC(C)(C)N1 [Compound 61, 2-{6-[(2,2,6,6-tetramethylpiperidin-4-yl)oxy]pyridazin-3-yl}-5-(1H-1,2,4-triazol-1-yl)pyridin-3-ol]
IC50: ≤ 100 nM

Molecule: COc1cc(-c2cnc(-c3ccc(N4C[C@@H](C)N[C@@H](C)C4)nn3)c(O)c2)ccn1 [Compound 96, 6-{6-[(3R,5S)-3,5-dimethylpiperazin-1-yl]pyridazin-3-yl}-2′-methoxy[3,4′-bipyridin]-5-ol and 6-{6-[(3S,5R)-3,5-dimethylpiperazin-1-yl]pyridazin-3-yl}-2′-methoxy[3,4′-bipyridin]-5-ol]
IC50: 100 to 500 nM

Molecule: CC(C)[C@H]1CN(c2ncc(-c3ncc(-n4nccn4)cc3O)nn2)CCN1 [Compound 156, 2-{3-[(3S)-3-(propan-2-yl)piperazin-1-yl]-1,2,4-triazin-6-yl}-5-(2H-1,2,3-triazol-2-yl)pyridin-3-ol]
IC50: 100 to 500 nM

Molecule: Cn1ccc(-c2cnc(-c3ccc(O[C@H]4CC(C)(C)NC(C)(C)[C@H]4F)nn3)c(O)c2)cc1=O (single isomer, unassigned) [Compound 37, 6-(6-{[(3R,4S)-3-fluoro-2,2,6,6-tetramethylpiperidin-4-yl]oxy}pyridazin-3-yl)-5-hydroxy-1′-methyl[3,4′-bipyridin]-2′(1′H)-one or 6-(6-{[(3S,4R)-3-fluoro-2,2,6,6-tetramethylpiperidin-4-yl]oxy}pyridazin-3-yl)-5-hydroxy-1′-methyl[3,4′-bipyridin]-2′(1′H)-one]
IC50: 100 to 500 nM

Molecule: 2-(3-{[(3S,4S)-3-fluoro-2,2,6,6-tetramethylpiperidin-4-yl]amino}-1,2,4-triazin-6-yl)-5-(1H-pyrazol-4-yl)pyridin-3-ol and 2-(3-{[(3R,4R)-3-fluoro-2,2,6,6-tetramethylpiperidin-4-yl]amino}-1,2,4-triazin-6-yl)-5-(1H-pyrazol-4-yl)pyridin-3-ol [Compound 139]
IC50: ≤ 100 nM

Molecule: CC1CN(c2ccc(-c3ncc(NCc4cccnc4)cc3O)nn2)CCN1 (stereo not drawn) [Compound 110, 2-[6-(3-methylpiperazin-1-yl)pyridazin-3-yl]-5-{[(pyridin-3-yl)methyl]amino}pyridin-3-ol]
IC50: 500 to 1000 nM

Molecule: C[C@@H]1CN(c2ccc(-c3ncc(-c4cc(C#N)c5nn(C)cc5c4)cc3O)nn2)C[C@H](C)N1 [Compound 78, 5-(6-{6-[(3R,5S)-3,5-dimethylpiperazin-1-yl]pyridazin-3-yl}-5-hydroxypyridin-3-yl)-2-methyl-2H-indazole-7-carbonitrile and 5-(6-{6-[(3S,5R)-3,5-dimethylpiperazin-1-yl]pyridazin-3-yl}-5-hydroxypyridin-3-yl)-2-methyl-2H-indazole-7-carbonitrile]
IC50: ≤ 100 nM

Molecule: Cc1cn2nc(-c3cnc(-c4ccc(OC5CC(C)(C)NC(C)(C)C5)nn4)c(O)c3)cc(C)c2n1 [Compound 50, 5-(2,8-dimethylimidazo[1,2-b]pyridazin-6-yl)-2-{6-[(2,2,6,6-tetramethylpiperidin-4-yl)oxy]pyridazin-3-yl}pyridin-3-ol]
IC50: ≤ 100 nM
